According to PubChem BioAssay (NCI):
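The compound was tested at five concentrations on cells cultured in 96-well plates, with a 48-hour exposure period. Definition used: TGI = concentration required for complete inhibition of growth.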

Assays:
Experiment in all cases: DTP human tumour cell line panel, 48 h
IGROV1 ovarian = test system: IGROV1 ovarian
PC-3 prostate = test system: PC-3 prostate
COLO 205 colon = test system: COLO 205 colon
UACC-257 melanoma = test system: UACC-257 melanoma
MDA-MB-231 breast = test system: MDA-MB-231 breast
SN12C renal = test system: SN12C renal
HS 578T breast = test system: HS 578T breast
NCI/ADR-RES ovarian = test system: NCI/ADR-RES ovarian
TK-10 renal = test system: TK-10 renal
OVCAR-8 ovarian = test system: OVCAR-8 ovarian
NCI-H460 lung = test system: NCI-H460 lung
SF-539 CNS = test system: SF-539 CNS
CAKI-1 renal = test system: CAKI-1 renal
UACC-62 melanoma = test system: UACC-62 melanoma
SF-295 CNS = test system: SF-295 CNS
BT-549 breast = test system: BT-549 breast
HCT-15 colon = test system: HCT-15 colon
MDA-N = test system: MDA-N
U251 CNS = test system: U251 CNS
RPMI-8226 leukemia = test system: RPMI-8226 leukemia

Row | SMILES | TGI (IGROV1 ovarian) | TGI (PC-3 prostate) | TGI (COLO 205 colon) | TGI (UACC-257 melanoma) | TGI (MDA-MB-231 breast) | TGI (SN12C renal) | TGI (HS 578T breast) | TGI (NCI/ADR-RES ovarian) | TGI (TK-10 renal) | TGI (OVCAR-8 ovarian) | TGI (NCI-H460 lung) | TGI (SF-539 CNS) | TGI (CAKI-1 renal) | TGI (UACC-62 melanoma) | TGI (SF-295 CNS) | TGI (BT-549 breast) | TGI (HCT-15 colon) | TGI (MDA-N) | TGI (U251 CNS) | TGI (RPMI-8226 leukemia)
1 | Cn1nnc2c3c(N(CCO)CCO)ccnc3ccc21 | > 100 µM | > 100 µM | > 100 µM | > 100 µM | > 100 µM | > 100 µM | > 100 µM | > 100 µM | > 100 µM | > 100 µM | > 100 µM | > 100 µM | > 100 µM | > 100 µM | > 100 µM | > 100 µM | > 100 µM | > 100 µM |  | 
2 | COC(=O)c1ccc2c(c1)CC1(C2)Cc2ccccc2C1=O (configuration not stated) | > 100 µM | > 100 µM | 42.4 µM | 35.2 µM | 84.8 µM | > 100 µM | > 100 µM | 68.6 µM | > 100 µM | > 100 µM | > 100 µM | > 100 µM | > 100 µM |  | > 100 µM |  | > 100 µM | 59.8 µM | > 100 µM | 38 µM
3 | O=C(NCCNCCNC(=O)c1cc(-c2ccccc2)nc2ccccc12)c1cc(-c2ccccc2)nc2ccccc12 | 7.25 µM | 8.88 µM | 3.8 µM | 3.92 µM | 7.32 µM | 7.59 µM | 6.86 µM | 4.18 µM | 7.96 µM | 4.54 µM | 2.97 µM | 3.99 µM | 24.1 µM | 5.77 µM | 3.28 µM | 28.6 µM | 8.19 µM | 3.42 µM | 4.07 µM | 
4 | COC(=O)[C@@](NC(=O)OCc1ccccc1)([C@H](C)O)C(F)(F)F | > 100 µM | > 100 µM | > 100 µM | > 100 µM | > 100 µM |  | > 100 µM | > 100 µM | > 100 µM | > 100 µM | > 100 µM |  | > 100 µM | > 100 µM | > 100 µM | > 100 µM | > 100 µM |  | > 100 µM | > 100 µM
5 | C1CCCN(NC2=NCCO2)CC1 | > 100 µM | > 100 µM | > 100 µM | > 100 µM | > 100 µM | > 100 µM | > 100 µM | > 100 µM | > 100 µM | > 100 µM | > 100 µM | > 100 µM | > 100 µM | > 100 µM | > 100 µM |  | > 100 µM | > 100 µM | > 100 µM | > 100 µM
6 | COc1cc(C2c3cc4c(cc3C(=O)C3CCC(=O)N32)OCO4)cc(OC)c1O (configuration not stated) | > 50 µM | > 50 µM | > 50 µM | > 50 µM |  | > 50 µM |  | > 50 µM |  | > 50 µM | > 50 µM | > 50 µM |  | > 50 µM | > 50 µM | > 50 µM | > 50 µM | > 50 µM | > 50 µM | > 50 µM
7 | C1CSCC2(COC2)CSCCSCC2(COC2)CS1 | > 100 µM | > 100 µM | > 100 µM | > 100 µM | > 100 µM | > 100 µM |  | > 100 µM | > 100 µM | > 100 µM | > 100 µM | > 100 µM |  | > 100 µM | > 100 µM | > 100 µM | > 100 µM | > 100 µM | > 100 µM | 
8 | CCCCCCCCCCCCOCC1(COCCCCCCCCCCCC)COC(c2ccc(N)cc2)OC1 | > 100 µM | > 100 µM |  | > 100 µM | > 100 µM | > 100 µM | > 100 µM | > 100 µM | > 100 µM | > 100 µM |  | > 100 µM | > 100 µM | > 100 µM | > 100 µM |  | > 100 µM | > 100 µM | > 100 µM | > 100 µM
9 | CCSC1=N/C(=C\c2ccco2)C(=O)N1 | > 100 µM | > 100 µM | > 100 µM |  | > 100 µM | > 100 µM | > 100 µM | > 100 µM | > 100 µM | > 100 µM |  |  |  | > 100 µM | > 100 µM |  | > 100 µM | > 100 µM | > 100 µM | > 100 µM
10 | COc1cc([C@@H]2c3cc4c(cc3[C@@H](Nc3ccc(Cl)cc3C(=O)c3ccccc3)[C@H]3COC(=O)[C@H]23)OCO4)cc(OC)c1OC | 7.6 µM |  |  | > 100 µM | > 100 µM | > 100 µM | 0.926 µM | > 100 µM | > 100 µM | > 100 µM | > 100 µM | 0.669 µM | > 100 µM | > 100 µM |  | > 100 µM |  | > 93.6 µM | 0.576 µM | > 100 µM
11 | Cc1sc2nc3n(c(=O)c2c1C)N=CN(c1ccc(Cl)cc1)C3 | > 100 µM | > 100 µM | > 100 µM | > 100 µM | > 100 µM | > 100 µM |  | > 100 µM | > 100 µM | > 100 µM | > 100 µM |  | > 100 µM | > 100 µM | > 100 µM | > 100 µM | > 100 µM | > 100 µM | > 100 µM | > 100 µM
12 | O=C1OC([C@H](O)c2cccnc2)c2ccccc21 (some centres not stated) | > 10 µM | > 10 µM | > 10 µM | > 10 µM | > 10 µM | > 10 µM | > 10 µM | > 10 µM | > 10 µM | > 10 µM | > 10 µM | > 10 µM | > 10 µM | > 10 µM | > 10 µM |  | > 10 µM | > 10 µM | > 10 µM | > 10 µM
13 | O=c1[nH][nH]c(=O)c2c1ccc1oc3ccccc3c12 | > 100 µM | > 100 µM | > 100 µM | > 100 µM | > 100 µM | > 100 µM | > 100 µM |  | > 100 µM | > 100 µM | > 100 µM | > 100 µM | > 100 µM | > 100 µM | > 100 µM | > 100 µM |  | > 100 µM | > 100 µM | > 100 µM
